From PubChem BioAssay AID434987 (Southern Research Specialized Biocontainment Screening …, 2010)
Activity calls are given as the source filed them. How the calls were made is not given here.

System: M. tuberculosis H37Rv growth inhibition with meropenem
Assay: dose response, H37Rv, with and without meropenem (AID 434987);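 further: growth over 7 days at 37 °C before Alamar Blue read on day 9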
[1] = M. tuberculosis H37Rv growth inhibition, measured here: IC50 without meropenem
[2] = M. tuberculosis H37Rv growth inhibition, measured here: IC90 without meropenem
[3] = measured here: IC90 with meropenem

| SMILES | IC50 | IC50 [1] | IC90 [2] | IC90 [3] |
| --- | --- | --- | --- | --- |
| O=C(CCN1c2ccccc2Sc2ccccc21)Oc1ccccc1 | 8.48 µM | > 100 µM | > 100 µM | > 100 µM |
| CCOC(=O)c1c(C)[nH]c(N=Nc2ccccc2Cl)c1C | 32.4 µM (inactive) | 63.1 µM | > 100 µM | > 100 µM |
| CCOC(=O)c1c(C)nc2sc(C(=O)Nc3ccccc3)c(N)c2c1-c1ccc(OC)cc1 | > 100 µM (inactive) | > 100 µM | > 100 µM | > 100 µM |
| O=C(Nc1nc2ccccc2[nH]1)c1ccccc1F | > 100 µM (inactive) | > 100 µM | > 100 µM | > 100 µM |
| O=C(C1=C[C@@H](c2ccc(Br)cc2)C[C@@H](OCc2ccc(CO)cc2)O1)N1CCN(Cc2ccc3c(c2)OCO3)CC1 | 79.3 µM (inactive) | > 100 µM | > 100 µM | > 100 µM |
| Cc1ccc(C(=O)Nc2c(C)cc(C)c3cccnc23)cc1 | 2.39 µM | 10.3 µM | > 50 µM | 10.5 µM |
| COc1cc(/C=C/c2ccc3cccc([N+](=O)[O-])c3n2)ccc1OCC(=O)O | 6.21 µM | 24.9 µM | 62.5 µM | 12 µM |
| COc1ccc(OC)c2nc(-c3ccc4c(c3)OCO4)ccc12 | 17.7 µM | > 100 µM | > 100 µM | > 25 µM |
| CCCCOc1ccc(C(=O)Oc2cccnc2)cc1 | 19.5 µM | > 100 µM | > 100 µM | > 100 µM |
| CCOc1ccc(S(=O)(=O)N(C(=O)c2ccco2)c2cc3sc(=O)oc3c3ccccc23)cc1 | 44.7 µM (inactive) | 41.8 µM | 45.1 µM | 46.9 µM |
| Nc1nc2ccccc2n1C(=O)c1cccs1 | 5.84 µM | 42.8 µM | > 100 µM | > 100 µM |
| CCOC(OCC)c1cn(Cc2ccc3c(c2)C(=O)c2ccccc2C3=O)nn1 | > 100 µM (inactive) | > 100 µM | > 100 µM | > 100 µM |
| N#Cc1ccc(NCC(=O)Nc2ccc(S(=O)(=O)N3CCCCC3)cc2)cc1 | > 100 µM (inactive) | > 100 µM | > 100 µM | > 100 µM |
| CCN(CC)C(=O)C1CCCN(c2ccc([N+](=O)[O-])cc2/C=N/NC(=O)c2cccc([N+](=O)[O-])c2)C1 (stereo unspecified) | > 100 µM (inactive) | > 100 µM | > 100 µM | > 100 µM |
| C=CCN=c1scc(-c2ccc(F)cc2)n1/N=C/c1ccccn1 | 33 µM | 92.8 µM | > 100 µM | 71.7 µM |
| Cn1c(=O)c2[nH]c(CNCc3ccccc3Cl)nc2n(C)c1=O | 37.1 µM | > 100 µM | > 100 µM | > 100 µM |
| O=C(OCC(=O)c1c[nH]c2ccccc12)c1cccc([N+](=O)[O-])c1 | > 100 µM (inactive) | > 100 µM | > 100 µM | > 100 µM |
| Cc1ccccc1OCC(=O)Nc1ccccc1N1CCCCC1 | 5.94 µM | 96.4 µM | > 100 µM | 13.5 µM |
| COc1ccc(Cl)cc1NC(=O)NNC(=O)c1ccccn1 | 41.1 µM (inactive) | > 100 µM | > 100 µM | > 100 µM |
| C=CCn1c(SCc2ccc(C(=O)Nc3nccs3)cc2)nnc1-c1ccc(C)c(Cl)c1 | 95.3 µM (inactive) | > 100 µM | > 100 µM | > 100 µM |

| SMILES | IC50 | IC50 [1] | IC90 [2] | IC90 [3] |
| --- | --- | --- | --- | --- |
| O=c1c2cc(Cl)ccc2[nH]c(=S)n1Cc1cccs1 | 5.72 µM | 20.4 µM | > 50 µM | 13.2 µM |
| C=CCc1cc(Cl)ccc1OCCCNC(C)CC (stereo unspecified) | 38.2 µM (inactive) | 49.2 µM | 55.1 µM | 51.3 µM |
| CCN=c1scc(-c2ccccc2)n1/N=C/c1ccccn1 | 93.2 µM (inactive) | > 100 µM | > 100 µM | > 100 µM |
| Cc1nn(-c2ccccc2)c(Cl)c1CN(C(=O)CCl)c1cccc2ccccc12 | 18.7 µM (inactive) | 33 µM | 53.4 µM | 48.2 µM |
| CCCOc1ccccc1NC(=O)/C=C/C(N)=O | 13.4 µM (inactive) | 26.8 µM | 33.8 µM | 27.7 µM |
| Cc1ccc2occ(/C=C/C(=O)c3ccccc3O)c(=O)c2c1 | 50.2 µM (inactive) | > 100 µM | > 100 µM | > 100 µM |
| Clc1ccc(/C=N/NC2=Nc3cccc4cccc2c34)cc1 | > 100 µM (inactive) | > 100 µM | > 100 µM | > 100 µM |
| CC(C)Oc1ccc(N2CC(C(=O)Nc3ccccc3F)CC2=O)cc1 (stereo unspecified) | 56.8 µM (inactive) | > 100 µM | > 100 µM | > 100 µM |
| COc1cc2cnc(-c3ccsc3)c(-c3ccc(F)cc3)c2cc1OC | > 100 µM (inactive) | > 100 µM | > 100 µM | > 100 µM |
| CC1(C)Cc2c(C#N)c(SCc3ccccc3)nc(N3CCOCC3)c2CO1 | > 100 µM (inactive) | > 100 µM | > 100 µM | > 100 µM |
| NNC(=S)Nc1ccc(C(F)(F)F)cc1Cl | > 100 µM (inactive) | > 100 µM | > 100 µM | > 100 µM |
| O=c1[nH]c(=S)[nH]c(O)c1N=Nc1ccc2c(c1)OCCO2 | > 100 µM (inactive) | > 100 µM | > 100 µM | > 100 µM |
| CCc1ccccc1NC(=O)CNC(=O)c1cc(C2CC2)nn1-c1ccccc1 | > 100 µM (inactive) | > 100 µM | > 100 µM | > 100 µM |
| C=C(C)COc1ccc(-c2nc(N)ncc2Oc2ccc(OC)cc2)c(O)c1 | > 100 µM (inactive) | > 100 µM | > 100 µM | > 100 µM |
| CCN(CC)c1ccc(N=Cc2c(O)n(-c3ccc(Cl)cc3)c(=O)[nH]c2=O)cc1 | 20.9 µM | > 100 µM | > 100 µM | > 100 µM |
| Cc1ccc(SCc2c(C#N)c3ccccc3n2C)cc1 | > 100 µM (inactive) | > 100 µM | > 100 µM | > 100 µM |
| CCCCN(CC)S(=O)(=O)c1ccc(C(=O)Nc2nnc(CSC)o2)cc1 | 17.2 µM (inactive) | 25.2 µM | > 100 µM | 31.7 µM |
| CCOCC(=O)Nc1ccc(F)c(F)c1 | 81.2 µM (inactive) | 94.5 µM | > 100 µM | > 100 µM |
| CC(C)C1CC(CCNCc2ccc(N(C)C)cc2)(c2ccccc2)CCO1 (stereo unspecified) | 24.5 µM (inactive) | 29 µM | 40.7 µM | 26.9 µM |
| CC(=O)c1ccc(OC(=O)N(c2ccccc2)c2ccccc2)cc1 | 4.13 µM | 29.6 µM | > 100 µM | 32.9 µM |

| SMILES | IC50 | IC50 [1] | IC90 [2] | IC90 [3] |
| --- | --- | --- | --- | --- |
| Cc1ccc(-n2ncc(-c3nnc(SCC(=O)NC4CCCC4)o3)c2N)cc1C | > 100 µM (inactive) | > 100 µM | > 100 µM | > 100 µM |
| CC[C@@](C)(NS(=O)(=O)OCC(Cl)(Cl)Cl)c1ccccc1 | 50.1 µM (inactive) | 95 µM | > 100 µM | 54.8 µM |
| CCC(C(=O)Nc1ccccc1N1CCCC1)c1ccccc1 (stereo unspecified) | 48.8 µM (inactive) | > 100 µM | > 100 µM | > 100 µM |
| CCCn1c2ccccc2c2nnc(SCC(=O)OCC)nc21 | 27.7 µM (inactive) | 29.1 µM | > 50 µM | > 100 µM |
| CC(=O)c1sc(N/N=C\c2ccc(N(C)C)cc2)nc1C | 49.9 µM (inactive) | > 100 µM | > 100 µM | > 100 µM |
| COC(=O)CN1C(CN2CCOCC2)=Nc2ccc(Br)cc2C1c1ccccc1 (stereo unspecified) | > 100 µM (inactive) | > 100 µM | > 100 µM | > 100 µM |
| O=C1OC(c2ccco2)=N/C1=C\c1ccc(-c2cccc(C(F)(F)F)c2)o1 | 48.9 µM (inactive) | 75.3 µM | > 100 µM | 53.4 µM |
| CCCCCc1ccc(-c2ccc(/C=C/C(N)=O)cc2)nc1 | > 100 µM (inactive) | > 100 µM | > 100 µM | > 100 µM |
| Cc1ccc(C)c(CSc2nnc(C)c(=O)n2N)c1 | 5.73 µM | 14.1 µM | 39.5 µM | 20.4 µM |
| CC(=O)c1c(OC(=O)c2cccc(Cl)c2)c2ccccc2n1C | 29.5 µM (inactive) | 68.6 µM | > 100 µM | > 100 µM |
| O=C(Oc1c(-c2ccccc2)c(=O)n2c3c(cccc13)CC2)c1cccc([N+](=O)[O-])c1 | 3.97 µM | 30.5 µM | 85.1 µM | 62.3 µM |
| CCCCC(=O)Nc1ccc(NC(=S)NC(=O)CCCCl)cc1OC | > 50 µM (inactive) | 94.9 µM | > 100 µM | > 50 µM |
| Fc1ccc(-c2csc(NC(=S)Nc3ccccc3)n2)cc1 | 7.55 µM | > 100 µM | > 100 µM | > 50 µM |
| COCCNC(=S)N/N=C(\C)c1cccc(OC)c1 | 17.8 µM | 47.1 µM | > 100 µM | > 100 µM |
| O=C1N/C(=N\N=C\c2ccc3ncccc3c2)SC1Cc1ccc(SC(F)F)cc1 (stereo unspecified) | > 100 µM (inactive) | > 100 µM | > 100 µM | > 100 µM |
| CCCN1C(=O)S/C(=C/c2ccc(N3CCOCC3)o2)C1=O | < 0.2 µM | 34.9 µM | > 100 µM | > 100 µM |
| CC(C(=O)Nc1nc2ccccc2[nH]1)N1C(=O)C2CC=CCC2C1=O (stereo unspecified) | > 100 µM (inactive) | > 100 µM | > 100 µM | > 100 µM |
| COc1ccccc1N1CCN(CC(=O)Nc2cc(F)ccc2C)CC1 | 47 µM (inactive) | 58.6 µM | > 100 µM | 91 µM |
| Cn1cccc1/C=C1/C(=O)NC(=O)N(Cc2ccc(F)cc2)C1=O | 23.7 µM (inactive) | 46.2 µM | > 50 µM | > 50 µM |
